{
  "source": "patent US20240366640A1",
  "about": "“LYOPHILIZED FORMULATION SOLUTION AND LYOPHILIZED FORMULATION, AND METHOD AND USE THEREOF” (ASCENTAWITS PHARMACEUTICALS, LTD., priority 2021, published 2024)",
  "key": {"[1]": {"assay": "Solubility of TH-302 by the saturated solution method (HPLC, external standard)", "assay_type": "physicochemical", "procedure": "The solubility is measured in an experiment by the saturated solution method; that is, the solid TH-302 was directly charged into the solvent until insoluble matter or turbidity appears. After clarification for a period of time, the solution was directly filtered. The clarified filtrate was taken directly for determination of the concentration of TH-302. The resulting concentration is exactly the solubility of TH-302 in this solvent system. Please refer to Tables 1, 2, and 3 for specific solubility data.\nFor the method for measuring the concentration of TH-302 (mg/ml), please refer to the HPLC method described in the patent WO2008083101A1 owned by Threshold Pharmaceuticals Inc. (see Example 2. An Ethanol Formulation of TH302, for details); and the external standard method was used for quantification."}, "[2]": {"assay": "Saturated solubility of the drug in D5W solution (strong shaking)", "assay_type": "physicochemical", "details": "left to stand at room temperature for 24 hours", "procedure": "The TH-302 sample was weighed accurately in an amount of about 60 mg, placed in a transparent vial, and added with 6 ml of dextrose 5% in water (D5W). The resulting solution was shaked vigorously for 2 minutes to obtain a solubility-stock solution. It was observed that the solubility-stock solution contained insoluble substances. Thus, the solubility-preserving solution was filtered and then became clear. […] This value was exactly the saturated solubility of the drug in D5W solution."}, "[3]": {"details": "concentrate with 70% ethanol, 25% dimethlyacetamide, 5% polysorbate 80; mainly induced by dimethlyacetamide; WO2015013448A1; cited from earlier work"}},
  "data": [
    {"smiles": "Cn1c(COP(=O)(NCCBr)NCCBr)cnc1[N+](=O)[O-]", "note": "[TH-302]", "values": [
      {"measurement": "Solubility", "setting": "[1]; 1% Tween 80 aqueous solution (volume ratio)", "value": 7.21, "unit": "mg/mL"},
      {"measurement": "Solubility", "setting": "[1]; 95% tert-butanol/5% ethanol (volume ratio), TH-302 purchased commercially", "value": 9.98, "unit": "mg/mL"},
      {"measurement": "Appearance of the filtered filtrate", "setting": "[2]", "value": "still clear"},
      {"measurement": "TH-302 administration reactions", "setting": "[3]", "value": "lip swelling and urticaria"}
    ]}
  ]
}
